The source made the active and inactive calls. The calls are words filed in the database; no cut-off is given here.
Experiments:
VCaP [1] = assay: Antiproliferative activity against AR-positive human VCaP cells assessed as cell viability at 40 uM measured after 72 hrs by resazurin dye based fluorescence assay relative to control; format: functional; settings: read-out: Activity
CWR22R [2] = assay: Effect on AR-V7 variant protein expression in AR-positive human 22Rv1 cells harboring ARE14 construct at 10 uM after 24 hrs by immunoblot analysis; format: functional, cell-based
VCaP [3] = assay: Antiproliferative activity against AR-positive human VCaP cells assessed as growth inhibition measured after 72 hrs by resazurin dye based fluorescence assay; format: functional
LNCaP [4] = assay: Antiproliferative activity against AR-positive human LNCAP cells assessed as cell viability at 40 uM measured after 72 hrs by resazurin dye based fluorescence assay relative to control; format: functional; settings: read-out: Activity
CWR22R [5] = assay: Antiproliferative activity against AR-positive human 22Rv1 cells harboring ARE14 construct assessed as cell viability at 40 uM measured after 72 hrs by resazurin dye based fluorescence assay relative to control; format: functional; settings: 22Rv1, 72 h, read-out: Activity
PC-3 [6] = assay: Antiproliferative activity against AR-negative human PC3 cells assessed as growth inhibition measured after 72 hrs by resazurin dye based fluorescence assay; format: functional; settings: PC-3, 72 h
PC-3 [7] = assay: Antiproliferative activity against AR-negative human PC3 cells assessed as cell viability at 40 uM measured after 72 hrs by resazurin dye based fluorescence assay relative to control; format: functional; settings: PC-3, 72 h, read-out: Activity
CWR22R [8] = assay: Antiproliferative activity against human AR-positive 22Rv1 cells harboring ARE14 construct assessed as growth inhibition measured after 72 hrs by resazurin dye based fluorescence assay; format: functional; settings: 22Rv1, 72 h
LAPC4 [9] = assay: Antiproliferative activity against AR-positive human LAPC4 cells assessed as growth inhibition measured after 72 hrs by resazurin dye based fluorescence assay; format: functional; settings: LAPC4, 72 h
LAPC4 [10] = assay: Antiproliferative activity against AR-positive human LAPC4 cells assessed as cell viability at 40 uM measured after 72 hrs by resazurin dye based fluorescence assay relative to control; format: functional; settings: LAPC4, 72 h, read-out: Activity
LNCaP [11] = assay: Antiproliferative activity against AR-positive human LNCAP cells assessed as growth inhibition measured after 72 hrs by resazurin dye based fluorescence assay; format: functional
[12] = biological target: T1, Androgen receptor (Homo sapiens) (UniProt P10275); settings: at 10 µM
T1 sequence (whole entry): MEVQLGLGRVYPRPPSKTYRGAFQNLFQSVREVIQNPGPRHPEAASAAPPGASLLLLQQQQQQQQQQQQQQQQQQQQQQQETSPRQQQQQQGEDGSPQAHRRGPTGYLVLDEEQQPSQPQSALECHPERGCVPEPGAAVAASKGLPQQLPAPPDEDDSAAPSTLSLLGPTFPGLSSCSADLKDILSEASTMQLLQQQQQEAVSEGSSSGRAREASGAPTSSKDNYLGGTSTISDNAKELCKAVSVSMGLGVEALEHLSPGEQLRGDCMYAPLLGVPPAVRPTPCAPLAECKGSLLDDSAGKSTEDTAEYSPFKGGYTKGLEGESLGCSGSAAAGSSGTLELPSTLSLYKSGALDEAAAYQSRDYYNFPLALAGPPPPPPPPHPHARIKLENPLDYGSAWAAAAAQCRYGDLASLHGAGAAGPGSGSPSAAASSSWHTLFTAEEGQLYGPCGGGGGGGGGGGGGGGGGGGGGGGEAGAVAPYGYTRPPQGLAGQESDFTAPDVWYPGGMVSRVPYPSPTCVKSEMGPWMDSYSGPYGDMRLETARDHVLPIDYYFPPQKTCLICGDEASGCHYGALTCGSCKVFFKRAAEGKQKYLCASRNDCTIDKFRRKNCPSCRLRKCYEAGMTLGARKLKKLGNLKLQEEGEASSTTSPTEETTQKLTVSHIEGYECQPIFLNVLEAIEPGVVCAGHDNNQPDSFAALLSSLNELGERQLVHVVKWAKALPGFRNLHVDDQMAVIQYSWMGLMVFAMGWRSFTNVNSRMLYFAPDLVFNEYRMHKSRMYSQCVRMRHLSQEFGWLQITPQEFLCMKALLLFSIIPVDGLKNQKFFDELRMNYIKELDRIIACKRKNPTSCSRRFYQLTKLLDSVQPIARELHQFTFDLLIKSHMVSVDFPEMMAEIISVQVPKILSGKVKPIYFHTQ
Description: Inhibition of R1881 induced-AR transcriptional activity in AR-positive human 22Rv1 cells harboring ARE14 construct at 10 uM after 24 hrs by luciferase assay

[13] = biological target: T1, Androgen receptor (Homo sapiens); settings: at 10 µM; remark: listed apart in the source
Description: Inhibition of AR transcriptional activity in AR-positive human 22Rv1 cells harboring ARE14 construct assessed as suppression of NKX3.1 expression at 10 uM after 24 hrs by immunoblot analysis

[14] = biological target: T1, Androgen receptor (Homo sapiens); settings: at 10 µM; remark: listed apart in the source
Description: Inhibition of AR transcriptional activity in AR-positive human 22Rv1 cells harboring ARE14 construct assessed as suppression of PSA expression at 10 uM after 24 hrs by immunoblot analysis

Compound	viability at 40 µM (VCaP [1]) [%]	Activity (CWR22R [2])	GI50 (VCaP [3]) [µM]	viability at 40 µM (LNCaP [4]) [%]	viability at 40 µM (CWR22R [5]) [%]	GI50 (PC-3 [6]) [µM]	viability at 40 µM (PC-3 [7]) [%]	GI50 (CWR22R [8]) [µM]	GI50 (LAPC4 [9]) [µM]	viability at 40 µM (LAPC4 [10]) [%]	GI50 (LNCaP [11]) [µM]	inhibition [12]	inhibition [13]	inhibition [14]
C[C@@H](O)[C@@]12Cc3c(CO)cnn3C[C@@H]1C[C@H]1[C@@H]3CC=C4C[C@@H](O)CC[C@]4(C)[C@H]3CC[C@@]12C	96.7	inactive	> 40	82.8	96.3	> 40	> 100	> 40	> 40	92.2	> 40	inactive		
COC(=O)c1nn2c(c1C(=O)OC)C[C@]1(C(C)=O)[C@@H](C[C@H]3[C@@H]4CC=C5C[C@@H](O)CC[C@]5(C)[C@H]4CC[C@@]31C)[C@H]2Cc1ccccc1	57	inactive	> 40	83.5	28.4	> 40	64.7	> 40	> 40	81.3	> 40	inactive	inactive	inactive
C[C@@H](O)[C@@]12Cc3c(CO)c(CO)nn3C[C@@H]1C[C@H]1[C@@H]3CC=C4C[C@@H](O)CC[C@]4(C)[C@H]3CC[C@@]12C	96.3	inactive	> 40	92.8	95.8	> 40	> 100	> 40	> 40	97.5	> 40	inactive	Active	inactive
C[C@@H](O)[C@@]12Cc3c(CO)c(CO)nn3[C@H](Cc3ccccc3)[C@@H]1C[C@H]1[C@@H]3CC=C4C[C@@H](O)CC[C@]4(C)[C@H]3CC[C@@]12C	43	inactive	> 40	89.7	55.8	> 40	> 100	> 40	> 40	85.9	> 40	inactive		Active
CC(=O)[C@@]12Cc3c(C(=O)O)cnn3C[C@@H]1C[C@H]1[C@@H]3CCC4=CC(=O)CC[C@]4(C)[C@H]3CC[C@@]12C	95.7	inactive	> 40		92.4	> 40	> 100	> 40				inactive	inactive	inactive
COC(=O)c1nn2c(c1C(=O)OC)C[C@]1(C(C)=O)[C@@H](C[C@H]3[C@@H]4CCC5=CC(=O)CC[C@]5(C)[C@H]4CC[C@@]31C)[C@H]2Cc1ccccc1	80.7	inactive	> 40	80.6	63.3	> 40	> 100	> 40	> 40	97.2	> 40	inactive		Active
CNC(=O)c1ccc(N2C(=S)N(c3ccc(C#N)c(C(F)(F)F)c3)C(=O)C2(C)C)cc1F [ENZALUTAMIDE]	61.2			94.2	84		88.7			80.3				
COC(=O)c1nn2c(c1C(=O)OC)C[C@]1(C(C)=O)[C@@H](C[C@H]3[C@@H]4CC=C5C[C@@H](OC(C)=O)CC[C@]5(C)[C@H]4CC[C@@]31C)[C@H]2Cc1ccccc1	85.9	inactive	> 40	89.7	15	> 40	> 100	> 40	> 40	> 100	> 40	inactive	inactive	inactive
COC(=O)c1nn2c(c1C(=O)OC)C[C@]1(C(C)=O)[C@@H](C[C@H]3[C@@H]4CC=C5C[C@@H](O)CC[C@]5(C)[C@H]4CC[C@@]31C)C2	> 100	inactive	> 40		88	> 40	71.7	> 40				inactive	inactive	inactive
COC(=O)c1cnn2c1C[C@]1(C(C)=O)[C@@H](C[C@H]3[C@@H]4CC=C5C[C@@H](OC(C)=O)CC[C@]5(C)[C@H]4CC[C@@]31C)C2	84.9	inactive	> 40		83.3	> 40	> 100	> 40				inactive		Active
COC(=O)c1nn2c(c1C(=O)OC)C[C@]1(C(C)=O)[C@@H](C[C@H]3[C@@H]4CCC5=CC(=O)CC[C@]5(C)[C@H]4CC[C@@]31C)C2	80.3	inactive	> 40		73.5	> 40	94	> 40				inactive	Active	inactive
COC(=O)c1cnn2c1C[C@]1(C(C)=O)[C@@H](C[C@H]3[C@@H]4CC=C5C[C@@H](O)CC[C@]5(C)[C@H]4CC[C@@]31C)C2	90.4	inactive	> 40		78.5	> 40	89.6	> 40				inactive	Active	Active

Reference: ChEMBL document CHEMBL4364252, “Tetrahydropyrazolo[1,5-a]pyridine-fused steroids and their in vitro biological evaluation in prostate cancer” (2019)
